Key:
[1] = tested on: AMPK; assay: AMPK activation assay (phospho-AMPK Thr172 western blot) in 3T3 cells; format: cell-based, mouse; conditions: 30 min
Description: Effects of adenine on AMPK activation were evaluated based on the phosphorylation of AMPK protein upon adenine treatment. Mouse muscle cell C2C12, mouse fibroblast 3T3, human liver carcinoma cell Hep G2, human breast adenocarcinoma cell line MCF7 and human colon adenocarcinoma grade II cell line HT29, human umbilical vein endothelial cell HUVEC, Human acute monocytic leukemiacell THP1, human macrophage cell U937, murine microglia cell BV-2, and mouse neuroblastoma cell Neuro2A and dermal papilla cell were cultured in high-glucose Dulbecco's modified Eagle's medium (DMEM) containing 10% fetal bovine serum (FBS), 4 mM L-glutamine, 2 mM sodium pyruvate and 1% penicillin/streptomycin (Invitrogen GibcoBRL, Carlsbad, Calif., USA) at 37°C, under 5% CO2. Cells were plated at 3 × 10^5 per well in 6-well plates. Twenty-four hours after plating, adenine was added to the culture media as indicated. After 30 min cells were lysed and subject to western blot analysis. Equal amount of protein from each sample was separated by SDS-PAGE and then electroblotted on to PVDF membranes. Membranes were blocked with 3% BSA in PBS for 60 min and incubated with an anti-phospho-AMPK (Thr172) antibody (1:2,000, Cell signaling) or an anti-AMPK antibody (1:2,000, Cell signaling) at 4°C for 16 h followed by the corresponding secondary antibody for 1 h at room temperature (RT). Immunoreactive bands were detected by enhanced chemiluminescence and recorded using Kodak film. The detected signals were scanned and then quantified using TotalLab Quant software (TotalLab).

[2] = tested on: IL-1β; assay: LPS-induced inflammatory response in THP1 macrophages, secreted IL-1β (ELISA); format: cell-based, human; conditions: 50 ng LPS 6 hr
Description: Effects of adenine on inflammatory response were evaluated in human THP1 macrophage by examining protein level of intracellular COX-2 and secreted TNFα, IL-1β and IL-6. Differentiation of THP1 monocytes into macrophages was induced by 50 nM PMA for 24 hr. THP1 macrophages were further stimulated by 50 ng LPS for 6 hr in the presence of 10-600 µM of adenine or vehicle followed by cell lysis and western blot analysis. Equal amounts of protein were separated by SDS-PAGE and then electroblotted on to PVDF membranes. Membranes were blocked with 3% BSA in PBS for 60 min and incubated with an anti-COX-2 antibody (1:1,000, Cell signaling), an anti-actin antibody (1:5,000, Cell signaling) at 4° C for 16 h followed by the corresponding secondary antibody for 1 h at room temperature (RT). Immunoreactive bands were detected by enhanced chemiluminescence and recorded using Kodak film. The detected signals were scanned and then quantified using TotalLab Quant software (TotalLab). The secreted TNFα, IL-1β and IL-6 were analyzed by enzyme-linked immunosorbent assays.

[3] = tested on: Amyloid β peptide; assay: Amyloid β peptide assay in Neuro2A cells transfected with human APP695 (western blot); format: cell-based, mouse; conditions: 24 h
Description: Effects of adenine on Amyloid β peptide were analyzed in mouse neuroblastoma cell Neuro2A. Neuro2A cells were cultured in high-glucose Dulbecco's modified Eagle's medium (DMEM) containing 10% fetal bovine serum (FBS), 4 mM L-glutamine, 2 mM sodium pyruvate and 1% penicillin/streptomycin (Invitrogen GibcoBRL, Carlsbad, Calif., USA) at 37°C under 5% CO2. Cells were plated at 3 × 10^5 per well (6-well plate). 24 h after plating, cells were transfected with human APP695 and treated with indicated concentration of adenine for 24 h followed by cell lysis and western blot analysis. Equal amounts of protein were separated by SDS-PAGE and then electroblotted on to PVDF membranes. Membranes were blocked with 3% BSA in PBS for 60 min and incubated with an anti-Aβ antibody (1:1,000, abcam), an anti-LC3 antibody (1:1,000, Cell signaling), and an anti-actin antibody (1:5,000, Cell signaling) at 4°C for 16 h followed by the corresponding secondary antibody for 1 h at room temperature (RT). Immunoreactive bands were detected by enhanced chemiluminescence and recorded using Kodakfilm. The detected signals were scanned and then quantified by using TotalLab Quant software (TotalLab).

[4] = tested on: 3T3 cells; assay: Fibroblast proliferation assay (trypan blue cell counting); format: cell-based, mouse; conditions: 72 h, mean±SEM of three experiments
Description: (§1) […] fibro blast cell line 3T3 were cultured in high-glucose Dulbecco's modified Eagle's medium (DMEM) containing 10% fetal bovine serum (FBS), 4 mM L-glutamine, 2 mM sodium pyruvate and 1% penicillin/streptomycin (Invitrogen GibcoBRL, Carlsbad, Calif., USA) at 37°C under 5% CO2. For cell proliferation assay, 3T3 cells were plated at 1 × 10^5 per well (6-well plate). Twenty-four hours after plating, cells were treated with indicated concentration of adenine for 72 h and the number of viable cells was counted. Cells were detached using trypsin-EDTA solution and stained with trypan blue. The living cells were counted using hemocytometer.

[5] = tested on: 6-mm full-thickness excisional skin wounds; assay: Wound healing and scar formation, excisional skin wounds in mice; format: in vivo, C57BL/6J mice; conditions: 14 days
Description: C57BL/6J mice were maintained at 22°C under a 12-h light/dark cycle. The experiments were performed with 12-week-old mice. After anesthetized by an intraperitoneal injection of ketamine (500 mg/kg) and xylazine (100 mg/kg), 6-mm full-thickness excisional skin wounds was made on the backs of mice using 6-mm skin biopsy punches. Immediately after wounding, 10-1200 µM of adenine or saline alone was applied to the wound bed. The skin wounds were then covered by semipermeable transparent dressing and fixed to the skin. The mice were treated with adenine or vehicle for 14 days and then sacrificed. The scar formation is assessed by Masson's trichrome staining (the tissue was fixed by 4% paraformaldehyde).

[6] = tested on: HT29; assay: Cancer cell growth inhibition assay, HT29; format: cell-based; conditions: Homo sapiens, HT-29; HT29 cell proliferation, 72 h, cell counting
Description: as §1, with “liver hepatocellular carcinoma” for “fibro blast”, “Hep G2, human breast adenocarcinoma cell line MCF7 and human colon adenocarcinoma grade II cell line HT29 were used to evaluate the effects of adenine on cell proliferation. Those cell lines were obtained from ATCC and” for “3T3”, “Cells” for “For cell proliferation assay, 3T3 cells”, “then followed by cell counting.” for “the number of viable cells was counted.”

Nc1ncnc2nc[nH]c12 [Adenine, adenine]
AMPK activation (fold to control) ([1]; adenine 1 microM): 1.1 fold to control | AMPK activation (fold to control) ([1]; adenine 10 microM): 1.5 fold to control | AMPK activation (fold to control) ([1]; adenine 100 microM): 2.9 fold to control | AMPK activation (fold to control) ([1]; adenine 200 microM): 4.0 fold to control | AMPK activation (fold to control) ([1]; adenine 600 microM): 4.2 fold to control | IL-1β □ (%to control) ([2]; adenine 10 microM): 91±8.4 %to control | IL-1β □ (%to control) ([2]; adenine 100 microM): 29±5.5 %to control | IL-1β □ (%to control) ([2]; adenine 600 microM): 17±3.7 %to control | sAβ level (% of control) ([3]; Neuro2A cells transfected with human APP695, adenine 10 microM): 89 ± 7.5 % of control | sAβ level (% of control) ([3]; Neuro2A cells transfected with human APP695, adenine 20 microM): 63 ± 2.2 % of control | sAβ level (% of control) ([3]; Neuro2A cells transfected with human APP695, adenine 30 microM): 48.1 ± 1.7 % of control | sAβ level (% of control) ([3]; Neuro2A cells transfected with human APP695, adenine 40 microM): 31.7 ± 5.1 % of control | sAβ level (% of control) ([3]; Neuro2A cells transfected with human APP695, adenine 50 microM): 29.4 ± 3.6 % of control | Cellnumber (% to control) ([4]; adenine 10 microM): 91±2.7 % to control | Cellnumber (% to control) ([4]; adenine 50 microM): 73±8.1 % to control | Cellnumber (% to control) ([4]; adenine 100 microM): 64±5.3 % to control | Cellnumber (% to control) ([4]; adenine 200 microM): 48±2.8 % to control | Cellnumber (% to control) ([4]; adenine 500 microM): 33±6.4 % to control | Cellnumber (% to control) ([4]; adenine 1000 microM): 27±11.3 % to control | extent of closure ([5]; topical 10-1200 µM adenine on wound bed, dose-dependent, vs control mice): significantly greater | scar width ([5]; topical 10-1200 µM adenine, histological examination, vs vehicle treated wounds): significantly decreased | IC50 [6]: 532 µM
